Data reported in patent US20170190671A1, “BIS(ARYL)CATECHOL DERIVATIVES AS HERBICIDES” (E I DU PONT DE NEMOURS AND COMPANY, priority 2014, published 2017).

Legend:
Assay in all cases: Test C preemergence
Format in all cases: in vivo
[1] = test system: blackgrass (Alopecurus myosuroides); details: Alopecurus myosuroides, pre-emergence, 336 h, scale 0 to 100, read-out: Plant response rating, Blackgrass
Method in brief: (§1)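 Seeds in loam-sand soil were treated preemergence, and plants at the 1- to 4-leaf stage (2-18 cm) in peat-based medium were sprayed postemergence, with test chemicals in a non-phytotoxic solvent containing surfactant. After 13-15 days in a greenhouse, response was rated visually against controls from 0 (no effect) to 100 (complete control).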

[2] = test system: velvetleaf (Abutilon theophrasti); details: Abutilon theophrasti, pre-emergence, scale 0 to 100, read-out: Plant response rating, Velvetleaf
Method in brief: as §1

[3] = test system: lambsquarters (Chenopodium album); details: Chenopodium album, pre-emergence, 336 h, scale 0 to 100, read-out: Plant response rating, Lambsquarters
Method in brief: as §1

[4] = test system: yellow nutsedge (Cyperus esculentus); details: Cyperus, pre-emergence, 336 h, scale 0 to 100, read-out: Plant response rating, Nutsedge, Yellow
Method in brief: as §1

[5] = test system: Italian ryegrass (Lolium multiflorum); details: Lolium multiflorum, pre-emergence, 336 h, scale 0 to 100, read-out: Plant response rating, Ryegrass, Italian
Method in brief: as §1

[6] = test system: giant foxtail (Setaria faberii); details: Setaria faberi, pre-emergence, 336 h, scale 0 to 100, read-out: Plant response rating, Foxtail, Giant
Method in brief: as §1

corn (Zea mays) = details: Zea mays, pre-emergence, 336 h, scale 0 to 100
Method in brief: as §1

[7] = test system: large (Lg) crabgrass (Digitaria sanguinalis); details: Digitaria sanguinalis, pre-emergence, 336 h, scale 0 to 100, read-out: Plant response rating, Crabgrass, Large
Method in brief: as §1

[8] = test system: winter wheat (Triticum aestivum); details: Triticum aestivum, pre-emergence, 336 h, scale 0 to 100, read-out: Plant response rating, Wheat
Method in brief: as §1

[9] = test system: galium (catchweed bedstraw, Galium aparine); details: Galium, pre-emergence, 336 h, scale 0 to 100, read-out: Plant response rating, Galium
Method in brief: as §1

[10] = test system: waterhemp (common waterhemp, Amaranthus rudis); details: Amaranthus tuberculatus, pre-emergence, scale 0 to 100, read-out: Plant response rating, Waterhemp
Method in brief: as §1

soybean (Glycine max) = details: Glycine max, pre-emergence, scale 0 to 100, read-out: Plant response rating, Soybean
Method in brief: as §1

[11] = test system: barnyardgrass (Echinochloa crus-galli); details: Echinochloa crus-galli, pre-emergence, read-out: Plant response rating, Barnyardgrass
Method in brief: as §1

[12] = test system: ragweed (common ragweed, Ambrosia elatior); details: Ambrosia artemisiifolia, pre-emergence, 336 h, scale 0 to 100, read-out: Plant response rating, Ragweed
Method in brief: as §1

[13] = test system: oilseed rape (Brassica napus); details: Brassica napus, pre-emergence, scale 0 to 100, read-out: Plant response rating, Oilseed Rape
Method in brief: as §1

Fc1cccc(Oc2ncc(C(F)(F)F)cn2)c1Oc1ncc(Cl)cn1 [Compound 42, 5-chloro-2-[2-fluoro-6-[[5-(trifluoromethyl)-2-pyrimidinyl]oxy]phenoxy]pyrimidine]
75%: pest or weed control at 125 g/ha ([4]; 125 g ai/ha, preemergence)
5%: pest or weed control at 16 g/ha ([5]; Preemergence, 16 g ai/ha) | Corn plant response rating (crop injury, 0 = no effect, 100 = complete kill) at 31 g/ha (corn (Zea mays); 31 g ai/ha, preemergence)
25%: plant injury at 16 g/ha (soybean (Glycine max); Preemergence, 16 g ai/ha)
50%: pest or weed control at 62 g/ha ([4]; 62 g ai/ha, preemergence) | plant injury at 31 g/ha (soybean (Glycine max); 31 g ai/ha, preemergence) | pest or weed control at 16 g/ha ([11]; Preemergence, 16 g ai/ha, scale 0 to 100 (0 no effect, 100 complete control))
65%: pest or weed control at 31 g/ha ([1]; 31 g ai/ha, preemergence)
90%: pest or weed control at 62 g/ha ([1]; 62 g ai/ha, preemergence) | pest or weed control at 125 g/ha ([1]; 125 g ai/ha, preemergence) | plant injury at 125 g/ha ([8]; 125 g ai/ha, preemergence) | pest or weed control at 31 g/ha ([11]; 31 g ai/ha, preemergence, scale 0 to 100) | pest or weed control at 125 g/ha ([12]; 125 g ai/ha, preemergence)
10%: pest or weed control at 31 g/ha ([4]; 31 g ai/ha, preemergence)
45%: plant injury at 62 g/ha ([8]; 62 g ai/ha, preemergence)
70%: pest or weed control at 31 g/ha ([5]; 31 g ai/ha, preemergence)
95%: pest or weed control at 125 g/ha ([5]; 125 g ai/ha, preemergence) | pest or weed control at 31 g/ha ([9]; 31 g ai/ha, preemergence) | pest or weed control at 62 g/ha ([9]; 62 g ai/ha, preemergence) | pest or weed control at 16 g/ha ([9]; Preemergence, 16 g ai/ha) | pest or weed control at 16 g/ha ([10]; Preemergence, 16 g ai/ha) | plant injury at 125 g/ha (soybean (Glycine max); 125 g ai/ha, preemergence)
35%: pest or weed control at 16 g/ha ([1]; Preemergence, 16 g ai/ha)
100%: pest or weed control at 31 g/ha ([2]; 31 g ai/ha, preemergence) | pest or weed control at 62 g/ha ([2]; 62 g ai/ha, preemergence) | pest or weed control at 125 g/ha ([2]; 125 g ai/ha, preemergence) | pest or weed control at 16 g/ha ([2]; Preemergence, 16 g ai/ha) | pest or weed control at 31 g/ha ([3]; 31 g ai/ha, preemergence) | pest or weed control at 62 g/ha ([3]; 62 g ai/ha, preemergence) | pest or weed control at 125 g/ha ([3]; 125 g ai/ha, preemergence) | pest or weed control at 16 g/ha ([3]; Preemergence, 16 g ai/ha) | pest or weed control at 31 g/ha ([6]; 31 g ai/ha, preemergence) | pest or weed control at 62 g/ha ([6]; 62 g ai/ha, preemergence) | pest or weed control at 125 g/ha ([6]; 125 g ai/ha, preemergence) | pest or weed control at 31 g/ha ([7]; 31 g ai/ha, preemergence) | pest or weed control at 62 g/ha ([7]; 62 g ai/ha, preemergence) | pest or weed control at 125 g/ha ([7]; 125 g ai/ha, preemergence) | pest or weed control at 16 g/ha ([7]; Preemergence, 16 g ai/ha) | pest or weed control at 31 g/ha ([10]; 31 g ai/ha, preemergence) | pest or weed control at 62 g/ha ([10]; 62 g ai/ha, preemergence) | pest or weed control at 125 g/ha ([10]; 125 g ai/ha, preemergence) | pest or weed control at 62 g/ha ([11]; 62 g ai/ha, preemergence, scale 0 to 100) | pest or weed control at 125 g/ha ([11]; 125 g ai/ha, preemergence, scale 0 to 100) | plant injury at 31 g/ha ([13]; 31 g ai/ha, preemergence) | plant injury at 62 g/ha ([13]; 62 g ai/ha, preemergence) | plant injury at 125 g/ha ([13]; 125 g ai/ha, preemergence)
98%: pest or weed control at 125 g/ha ([9]; 125 g ai/ha, preemergence) | pest or weed control at 62 g/ha ([12]; 62 g ai/ha, preemergence) | plant injury at 16 g/ha ([13]; Preemergence, 16 g ai/ha)
80%: pest or weed control at 62 g/ha ([5]; 62 g ai/ha, preemergence) | Corn plant response rating (crop injury, 0 = no effect, 100 = complete kill) at 62 g/ha (corn (Zea mays); 62 g ai/ha, preemergence) | plant injury at 62 g/ha (soybean (Glycine max); 62 g ai/ha, preemergence)
85%: pest or weed control at 16 g/ha ([6]; Preemergence, 16 g ai/ha) | Corn plant response rating (crop injury, 0 = no effect, 100 = complete kill) at 125 g/ha (corn (Zea mays); 125 g ai/ha, preemergence)
0%: pest or weed control at 16 g/ha ([4]; Preemergence, 16 g ai/ha) | Corn plant response rating (crop injury, 0 = no effect, 100 = complete kill) at 16 g/ha (corn (Zea mays); Preemergence, 16 g ai/ha) | plant injury at 16 g/ha ([8]; Preemergence, 16 g ai/ha)
30%: plant injury at 31 g/ha ([8]; 31 g ai/ha, preemergence) | pest or weed control at 16 g/ha ([12]; Preemergence, 16 g ai/ha)
55%: pest or weed control at 31 g/ha ([12]; 31 g ai/ha, preemergence)
